From ChEMBL document CHEMBL2363022, “Malaria Box Schistosomiasis Screening Data” (2013)

Columns and labels:
Assay type in all cases: functional
Design in all cases: scale not given here
Schistosoma mansoni [1] = tested on: Schistosoma mansoni
Schistosoma mansoni [2] = tested on: Schistosoma mansoni; remark: listed apart in the source
Schistosoma mansoni [3] = tested on: Schistosoma mansoni; remark: listed apart in the source

Structure (SMILES)	Toxicity (Schistosoma mansoni [1])	Toxicity (Schistosoma mansoni [2])	Toxicity (Schistosoma mansoni [3])
CCc1ccc(Nc2cc(C)c3ccc(O)cc3n2)cc1.Cl	2	2	3
Nc1ccc(-c2nc3cc(Cc4ccc5[nH]c(-c6ccc(N)cc6)nc5c4)ccc3[nH]2)cc1	1	1	1
COc1cc(CNCCc2ccc(Cl)cc2)cc(OC)c1O	0	0	0
CC(=O)c1ccc(NC(=O)CSc2nc(-c3ccccc3Cl)ns2)cc1	0	0	0
Cc1ccnc(NC(c2cccc(OCc3ccccc3)c2)c2ccc3cccnc3c2O)c1 (configuration not stated)	4	1	4
Oc1c2c(nc3cc(-c4ccccc4)nn13)CCCC2	0	0	0
Cc1cc(Nc2ccc3ccccc3c2)n2ncnc2n1	1	0	1
CCCc1cc(O)c2c3c(c(=O)oc2c1)CN(C)CC3	0	0	0
CN(C)c1ccc(N2C(N)=NC(N)=NC2(C)C)cc1	0	0	0
CCOC(=O)C1=C(C)N=c2sc(=Cc3ccccc3O)c(=O)n2C1c1ccc(OC)c2ccccc12 (configuration not stated)	0	0	4
CCCCCCc1cc2cc(-c3csc(C=Cc4ccccc4)n3)c(=O)oc2cc1O	0	0	0
COc1ccc(C(=O)C2CC2c2ccc(Cl)cc2)cc1 (configuration not stated)	0	0	0
CN1CCN(c2ncnc3c2[nH]c2ccc(Cl)cc23)CC1	0	0	0
O=c1c2c([nH]c3ccccc13)CCCC2	0	0	0
COc1ccc(CCN2C(=O)c3[nH]nc(-c4cc(Cl)c(C)cc4O)c3C2c2ccccc2F)cc1 (configuration not stated)	0	0	0
CCN(CC)CCCNc1ccnc2cc3ccccc3cc12	2	2	2
CCCc1c(CC)c(=N)c2ccccc2n1C	0	1	0
COc1cc2c3cc1Oc1c(OC)c(OC)cc4c1C(Cc1ccc(O)c(c1)Oc1ccc(cc1)CC3N(C)CC2)N(C)CC4.Cl (configuration not stated)	3	2	4
COc1ccc(-c2c(C)nn3c(N)c(C#N)cnc23)cc1OC	1	1	1
Cc1cc(C=C2SC(=Nc3ccccc3)N(C3CCCC3)C2=O)c(C)n1-c1ccc(Cl)cc1	0	0	0
Cc1cccc(N2C(=O)C3C(C2=O)C2(c4ccccc4)C(=O)C3(c3ccccc3)C(c3ccc4c(c3)OCO4)=C2c2ccc3c(c2)OCO3)c1 (configuration not stated)	0	0	0
CN(C)c1ccc(C=Cc2nc(=O)c3ccccc3o2)cc1	0	0	0
COCCN(C(=O)Cc1cccs1)C(C(=O)NCc1ccc(OC)cc1)c1ccc(C(C)C)cc1 (configuration not stated)	0	0	0
CCCOCc1cc(CN2CCN(c3cccc(Cl)c3)CC2)c(O)c2ncccc12	4	3	4
O=C(O)C(=O)O.Oc1ccccc1CN1CCN(C(c2ccccc2)c2ccccc2)CC1	0	0	0

Structure (SMILES)	Toxicity (Schistosoma mansoni [1])	Toxicity (Schistosoma mansoni [2])	Toxicity (Schistosoma mansoni [3])
COc1ccc2c(c1)C1(Nc3ccccc3-c3nc4ccccc4n31)C(=O)N2 (configuration not stated)	0	0	0
Oc1ccc(C(=C(Cl)Cl)c2ccc(O)cc2)cc1	0	0	0
Cl.c1ccc2c(NCCCCCCNc3c4c(nc5ccccc35)CCCC4)c3c(nc2c1)CCCC3	4	4	4
COc1ccc(C(=O)Nc2ccc(Cl)cc2C(=O)Nc2ccncc2)cc1	0	0	0
CN1c2ccccc2N(C)C1c1ccc2c(c1)OCO2	0	1	0
CCOc1ccc(N2C(N)=NC(N)=NC2(C)C)cc1.Cl	0	0	0
COC(=O)c1ccc(Cl)c2c1C1C=CCC1C(c1cccc3ccccc13)N2 (configuration not stated)	0	0	0
Cc1sc(NC(=O)c2ccccc2)c(C(c2cccs2)N2CCN(c3ccccc3)CC2)c1C (configuration not stated)	0	0	0
COc1ccccc1N1CCN(C(CNS(=O)(=O)c2ccc(Cl)cc2)c2cccnc2)CC1 (configuration not stated)	0	0	0
CC(C)(C)C(=O)Nc1ccc(C(=O)Nc2cccc(-c3nc4ccccc4[nH]3)c2)cc1	0	0	2
CCOc1cc(Br)c(C(C)NC(=O)c2cccc(OC)c2)cc1OCC (configuration not stated)	0	0	0
CCN(CC)CCNc1ncnc2c1[nH]c1ccc(Cl)cc12	0	0	0
O=C(NC1CCN(Cc2ccccc2)CC1)c1cc2nc(-c3ccc(Cl)s3)cc(C(F)(F)F)n2n1	4	0	4
CC(C)CNC(=O)c1c(N)n(CCc2ccccc2F)c2nc3ccccc3nc12	2	0	2
COc1ccc2c(c1OC)C(=O)N1c3ccccc3N=C(c3ccc(C)cc3)CC21 (configuration not stated)	0	0	0
O=C(Nc1cccc(C2=NCCN2)c1)Nc1cccc(C2=NCCN2)c1 [IMIDOCARB]	0	0	0
COc1ccc2c(=O)cc(C(Cl)(Cl)Cl)oc2c1	0	0	3
CC1CC2=C(CC1CNCCCN(C)C)C(C)(C)CCC2 (configuration not stated)	4	4	4
COc1ccccc1CNC(=O)CCn1c(=O)[nH]c2ccccc2c1=O	0	0	0
CC(Oc1ccc(NC(=O)c2cccs2)cc1)C(=O)c1ccc(Cl)cc1 (configuration not stated)	0	0	0
c1ccc(Cn2c(N=Nc3c(Nc4ccccc4)ccc4ccccc34)nc3ccccc32)cc1	0	0	0
CCOc1cc2c(cc1OCC)C(c1cc(C)c(O)c(C)c1)NCC2.Cl (configuration not stated)	0	2	0
COc1ccc(C2Sc3ccccc3N=C3C2=C(O)c2ccccc23)cc1 (configuration not stated)	0	0	0
Cn1c(=O)c2cc(C(=O)NCCCN3CCCCCC3)sc2c2ccccc21	0	0	0
